According to ChEMBL document CHEMBL1129273, “Structural modifications of thalidomide produce analogs with enhanced tumor necrosis factor inhibitory activity” (J Med Chem, 1996):

Experiments:
Tumor necrosis factor [1] = target: T1, Tumor necrosis factor (Homo sapiens, UniProt P01375); assay: Inhibition of TNF-alpha production in LPS stimulated human PBMCs; type: functional
Tumor necrosis factor [2] = target: T1, Tumor necrosis factor; assay: Inhibitory activity of TNF-alpha was measured in the supernatant of human PBMCs stimulated with LPS.; type: functional

T1 sequence (P01375 whole entry): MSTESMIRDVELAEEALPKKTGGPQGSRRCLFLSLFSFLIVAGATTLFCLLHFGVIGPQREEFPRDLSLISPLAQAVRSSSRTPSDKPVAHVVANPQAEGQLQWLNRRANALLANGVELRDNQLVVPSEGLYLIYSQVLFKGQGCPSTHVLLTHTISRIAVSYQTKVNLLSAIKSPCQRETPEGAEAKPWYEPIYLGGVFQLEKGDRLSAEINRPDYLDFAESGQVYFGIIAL

Structure (SMILES)	IC50 (Tumor necrosis factor [1]) [µM]	IC50 (Tumor necrosis factor [2]) [µM]
CNC(=O)CC(c1ccc(OC)c(OC)c1)N1C(=O)c2ccccc2C1=O (stereo unspecified)	12	
COC(=O)CC(c1ccc(OC)c(OC)c1)N1C(=O)c2ccc(C(C)(C)C)cc2C1=O (stereo unspecified)	4.2	
COC(=O)CC(c1ccc(OC)c(OC)c1)N1C(=O)c2ccccc2C1=O (stereo unspecified)	2.9	
COc1ccc(C(CC(N)=O)N2C(=O)c3ccccc3C2=O)cc1OC (stereo unspecified)	12	
COc1ccc(C(CC(=O)NCc2ccccc2)N2C(=O)c3ccccc3C2=O)cc1OC (stereo unspecified)	84	
COc1ccc(C(CC(N)=O)N2C(=O)c3ccccc3C2=O)cc1 (stereo unspecified)	62	
COC(=O)CC(c1ccc(OC)c(OC)c1)N1C(=O)c2cccc([N+](=O)[O-])c2C1=O (stereo unspecified)		64
NC(=O)CC(c1ccc2ccccc2c1)N1C(=O)c2ccccc2C1=O (stereo unspecified)	51	
CCNC(=O)CC(c1ccc(OC)c(OC)c1)N1C(=O)c2ccccc2C1=O (stereo unspecified)	53	
COc1cc(OC)cc(C(CC(N)=O)N2C(=O)c3ccccc3C2=O)c1 (stereo unspecified)	39	
NC(=O)CC(c1ccccc1)N1C(=O)c2ccccc2C1=O (stereo unspecified)	260	
N#Cc1cccc(C(CC(N)=O)N2C(=O)c3ccccc3C2=O)c1 (stereo unspecified)	89	
COc1ccc(C(CCO)N2C(=O)c3ccccc3C2=O)cc1OC (stereo unspecified)	7.5	
COC(=O)CC(c1ccc(OC)c(OC)c1)N1C(=O)c2cc3ccccc3cc2C1=O (stereo unspecified)	4.7	
COC(=O)CC(c1ccc(OC)c(OC)c1)N1C(=O)c2ccc(N)cc2C1=O (stereo unspecified)	0.38	
N#Cc1ccc(C(CC(N)=O)N2C(=O)c3ccccc3C2=O)cc1 (stereo unspecified)	150	
COc1cccc(C(CC(N)=O)N2C(=O)c3ccccc3C2=O)c1 (stereo unspecified)	120	
CCCOc1ccc(C(CC(N)=O)N2C(=O)c3ccccc3C2=O)cc1OCCC (stereo unspecified)	55	
COc1ccc(C(CC(=O)O)N2C(=O)c3ccccc3C2=O)cc1OC (stereo unspecified)	60	
COC(=O)CC(c1ccc(OC)c(OC)c1)N1C(=O)c2c(Cl)ccc(Cl)c2C1=O (stereo unspecified)		7.9
COC(=O)CC(c1ccc(OC)c(OC)c1)N1C(=O)c2cccc(O)c2C1=O (stereo unspecified)	15	
CCOc1ccc(C(CC(N)=O)N2C(=O)c3ccccc3C2=O)cc1OCC (stereo unspecified)	5.6	
NC(=O)CC(c1ccc(Cl)c(Cl)c1)N1C(=O)c2ccccc2C1=O (stereo unspecified)	70	
COC(=O)CC(c1ccc(OC)c(OC)c1)N1C(=O)c2ccc([N+](=O)[O-])cc2C1=O (stereo unspecified)		34
COC(=O)CC(c1ccc(OC)c(OC)c1)N1C(=O)c2cccc(N)c2C1=O (stereo unspecified)	0.45	
COC(=O)CC(c1ccc(OC)c(OC)c1)N1C(=O)c2cc(Cl)c(Cl)cc2C1=O (stereo unspecified)		13
